Data published in US20060281768A1, “THIENOPYRIMIDINE AND THIENOPYRIDINE KINASE MODULATORS” (priority 2005, published 2006).

Tests used:
FLT3 571-993 = target: T1, FLT3 571-993 (Homo sapiens, UniProt P36888); experiment: FLT3 Fluorescence Polarization Kinase Assay; assay type: biochemical; conditions: 10 nM FLT3 571-993, 150 uM ATP, 30 minutes; uncertainty +10%
T1 construct: 10 nM FLT3 571-993, 20 ug/mL poly Glu4Tyr
T1 sequence (P36888 571-993): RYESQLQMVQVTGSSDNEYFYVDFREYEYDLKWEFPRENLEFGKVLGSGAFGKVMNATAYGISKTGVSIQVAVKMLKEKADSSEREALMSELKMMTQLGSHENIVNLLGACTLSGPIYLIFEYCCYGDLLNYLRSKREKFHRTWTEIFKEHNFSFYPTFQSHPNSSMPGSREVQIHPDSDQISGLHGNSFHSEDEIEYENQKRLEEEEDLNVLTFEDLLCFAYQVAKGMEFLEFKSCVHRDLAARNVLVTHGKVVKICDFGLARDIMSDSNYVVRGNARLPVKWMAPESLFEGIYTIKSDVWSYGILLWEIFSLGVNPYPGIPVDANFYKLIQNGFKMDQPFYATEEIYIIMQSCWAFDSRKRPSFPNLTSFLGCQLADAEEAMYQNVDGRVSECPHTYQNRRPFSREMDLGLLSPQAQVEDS
Description: The FLT3 FP assay utilizes the fluorescein-labeled phosphopeptide and the anti-phosphotyrosine antibody included in the Panvera Phospho-Tyrosine Kinase Kit (Green) supplied by Invitrogen. When FLT3 phosphorylates poly Glu4Tyr, the fluorescein-labeled phosphopeptide is displaced from the anti-phosphotyrosine antibody by the phosphorylated poly Glu4Tyr, thus decreasing the FP value. The FLT3 kinase reaction is incubated at room temperature for 30 minutes under the following conditions: 10 nM FLT3 571-993, 20 ug/mL poly Glu4Tyr, 150 uM ATP, 5mM MgCl2, 1% compound in DMSO. The kinase reaction is stopped with the addition of EDTA. The fluorescein-labeled phosphopeptide and the anti-phosphotyrosine antibody are added and incubated for 30 minutes at room temperature.
All data points are an average of triplicate samples. Inhibition and IC50 data analysis was done with GraphPad Prism using a non-linear regression fit with a multiparamater, sigmoidal dose-response (variable slope) equation.

MV4-11 cells = experiment: Growth inhibition of MV4-11 cells (CellTiterGlo); assay type: cell-based; conditions: Homo sapiens, 72 hours, uncertainty +20%
Description: FLT3 specific growth inhibition was measured in the leukemic cell line MV4-11 (ATCC Number: CRL-9591). […] MV4-11 cells cannot grow and survive without active FLT31TD.
To measure proliferation inhibition by test compounds the luciferase based CellTiterGlo reagent (Promega) was used. Cells are plated at 10,000 cells per well in 100ul of in RPMI media containing penn/strep, 10% FBS and lng/ml GM-CSF or 1 ng/ml IL-3 for MV4-11 and Baf3 cells respectively.
Compound dilutions or 0.1% DMSO (vehicle control) are added to cells and the cells are allowed to grow for 72 hours at standard cell growth conditions (37° C., 5% CO2). Total cell growth is quantified as the difference in luminescent counts (relative light units, RLU) of cell number at Day 0 compared to total cell number at Day 3 (72 hours of growth and/or compound treatment). One hundred percent inhibition of growth is defined as an RLU equivalent to the Day 0 reading. Zero percent inhibition is defined as the RLU signal for the DMSO vehicle control at Day 3 of growth. All data points are an average of triplicate samples. […] Inhibition and IC50 data analysis was done with GraphPad Prism using a non-linear regression fit with a multiparamater, sigmoidal dose-response (variable slope) equation.
MV-411 cells expressed the FLT3 internal tandem duplication mutation, and thus were entirely dependent upon FLT3 activity for growth. […] In contrast, the Baf3 cell proliferations is driven by the cytokine IL-3 and these cells are used as a non-specific toxicity control for test compounds.

For `CC(C)Oc1ccc(NC(=O)NC2CCN(c3ncnc4sccc34)C2)cc1` (stereo not drawn) [Compound 10, 1-(4-Isopropoxy-phenyl)-3-(1-thieno[2,3-d]pyrimidin-4-yl-pyrrolidin-3-yl)-urea], which IC50 (FLT3 571-993) is on record?
The IC50 was 365 nM.

What about the IC50 (MV4-11 cells) of the same compound?
The IC50 was 3600 nM.

For `O=C(Nc1ccc(Br)cc1)NC1CCN(c2ncnc3ccsc23)C1` (stereo not drawn) [Compound 17, 1-(4-Bromo-phenyl)-3-(1-thieno [3,2-d]pyrimidin-4-yl-pyrrolidin-3-yl)-urea], which IC50 (MV4-11 cells) is on record?
The IC50 was 1900 nM.

How did the IC50 (MV4-11 cells) turn out when `O=C(Nc1ccc(N2CCOCC2)cc1)OC1CCN(c2ncnc3ccsc23)C1` (stereo not drawn) [Compound 28, (4-Morpholin-4-yl-phenyl)-carbamic acid 1-thieno[3,2-d]pyrimidin-4-yl-pyrrolidin-3-yl ester] was run?
Its IC50 is 2100 nM.

With `CC(C)c1ccc(NC(=O)OC2CCN(c3ncnc4sccc34)C2)cc1` (stereo not drawn) [Compound 3, (4-Isopropyl-phenyl)-carbamic acid 1-thieno[2,3-d]pyrimidin-4-yl-pyrrolidin-3-yl ester] as the compound, how does the IC50 (FLT3 571-993) read?
Its IC50 is 227 nM.

And the IC50 (MV4-11 cells)?
The IC50 was 2400 nM.

Which IC50 (MV4-11 cells) does the source give for `O=C(Nc1ccc(N2CCCC2)cc1)NC1CCN(c2ncnc3ccsc23)CC1` [Compound 23, 1-(4-Pyrrolidin-1-yl-phenyl)-3-(1-thieno [3,2-d]pyrimidin-4-yl-piperidin-4-yl)-urea] here?
Its IC50 is 3900 nM.

With `O=C(Nc1ccc(N2CCOCC2)cc1)NC1CCN(c2ncnc3ccsc23)C1` (stereo not drawn) [Compound 14, 1-(4-Morpholin-4-yl-phenyl)-3-(1-thieno [3,2-d]pyrimidin-4-yl-pyrrolidin-3-yl)-urea] as the compound, how does the IC50 (MV4-11 cells) read?
The IC50 was over 5000 nM.

Which results are given for `CC(C)c1ccc(NC(=O)OC2CCN(c3ncnc4sccc34)CC2)cc1` [Compound 1, (4-Isopropyl-phenyl)-carbamic acid 1-thieno[2,3-d]pyrimidin-4-yl-piperidin-4-yl ester]?
IC50 (FLT3 571-993): 102 nM; IC50 (MV4-11 cells): 7200 nM

Which IC50 (FLT3 571-993) does the source give for `CC(C)c1ccc(NC(=O)OC2CCN(c3ncnc4ccsc34)CC2)cc1` [Compound 7, (4-Isopropyl-phenyl)-carbamic acid 1-thieno[3,2-d]pyrimidin-4-yl-piperidin-4-yl ester] here?
Its IC50 is 140 nM.

What about the IC50 (MV4-11 cells) of the same compound?
Its IC50 is 4300 nM.

Which IC50 (FLT3 571-993) does the source give for `CC(C)Oc1ccc(NC(=O)NC2CCN(c3ncnc4ccsc34)C2)cc1` (stereo not drawn) [Compound 12, 1-(4-Isopropoxy-phenyl)-3-(1-thieno[3,2-d]pyrimidin-4-yl-pyrrolidin-3-yl)-urea] here?
Its IC50 is 296 nM.

And the IC50 (MV4-11 cells)?
The IC50 was 2500 nM.

With `CC(C)Oc1ccc(NC(=O)OC2CCN(c3ncnc4sccc34)CC2)cc1` [Compound 2, (4-Isopropoxy-phenyl)-carbamic acid 1-thieno[2,3-d]pyrimidin-4-yl-piperidin-4-yl ester] as the compound, how does the IC50 (FLT3 571-993) read?
The IC50 was 2090 nM.

What about the IC50 (MV4-11 cells) of the same compound?
The IC50 was over 10000 nM.

How did the IC50 (FLT3 571-993) turn out when `CC(C)Oc1ccc(NC(=O)OC2CCN(c3ncnc4ccsc34)C2)cc1` (stereo not drawn) [Compound 6, (4-Isopropoxy-phenyl)-carbamic acid 1-thieno[3,2-d]pyrimidin-4-yl-pyrrolidin-3-yl ester] was run?
Its IC50 is 208 nM.

What about the IC50 (MV4-11 cells) of the same compound?
The IC50 was 6500 nM.

With `O=C(Nc1ccc(C2CCCCC2)cc1)NC1CCN(c2ncnc3ccsc23)C1` (stereo not drawn) [Compound 16, 1-(4-Cyclohexyl-phenyl)-3-(1-thieno [3,2-d]pyrimidin-4-yl-pyrrolidin-3-yl)-urea] as the compound, how does the IC50 (MV4-11 cells) read?
Its IC50 is 5200 nM.

How did the IC50 (MV4-11 cells) turn out when `O=C(Nc1ccc(Oc2ccccc2)cc1)NC1CCN(c2ncnc3ccsc23)CC1` [Compound 22, 1-(4-Phenoxy-phenyl)-3-(1-thieno [3,2-d]pyrimidin-4-yl-piperidin-4-yl)-urea] was run?
Its IC50 is 3800 nM.

For `O=C(Nc1ccc(C2CCCCC2)cc1)NC1CCN(c2ncnc3ccsc23)CC1` [Compound 21, 1-(4-Cyclohexyl-phenyl)-3-(1-thieno [3,2-d]pyrimidin-4-yl-piperidin-4-yl)-urea], which IC50 (MV4-11 cells) is on record?
The IC50 was 1400 nM.

What does the source list for `CC(C)Oc1ccc(NC(=O)OC2CCN(c3ncnc4sccc34)C2)cc1` (stereo not drawn) [Compound 4, (4-Isopropoxy-phenyl)-carbamic acid 1-thieno[2,3-d]pyrimidin-4-yl-pyrrolidin-3-yl ester]?
IC50 (FLT3 571-993): 761 nM; IC50 (MV4-11 cells): > 10000 nM

`O=C(Nc1ccc(N2CCOCC2)cc1)NC1CCN(c2ncnc3ccsc23)CC1` [Compound 24, 1-(4-Morpholin-4-yl-phenyl)-3-(1-thieno[3,2-d]pyrimidin-4-yl-piperidin-4-yl)-urea] was tested. Which IC50 (MV4-11 cells) did it give?
Its IC50 is over 5000 nM.

With `O=C(Nc1ccc(OC2CCC2)nc1)NC1CCN(c2ncnc3ccsc23)CC1` [Compound 20, 1-(6-Cyclobutoxy-pyridin-3-yl)-3-(1-thieno [3,2-d]pyrimidin-4-yl-piperidin-4-yl)-urea] as the compound, how does the IC50 (MV4-11 cells) read?
The IC50 was 1500 nM.

Which IC50 (FLT3 571-993) does the source give for `CC(C)Oc1ccc(NC(=O)OC2CCN(c3ncnc4ccsc34)CC2)cc1` [Compound 8, (4-Isopropoxy-phenyl)-carbamic acid 1-thieno[3,2-d]pyrimidin-4-yl-piperidin-4-yl ester] here?
The IC50 was 3030 nM.

And the IC50 (MV4-11 cells)?
The IC50 was 3600 nM.
